Experiments:
Assay type in all cases: functional
[1] = tested on: Myzus persicae; assay: Insecticidal activity against Myzus persicae (green peach aphid) in compound treated leaf disk assessed as settling inhibition on leaf disk at 100 ug/cm'2 relative to control
[2] = tested on: Myzus persicae; assay: Insecticidal activity against Myzus persicae (green peach aphid) in compound treated leaf disk assessed as settling inhibition on leaf disk at 50 ug/cm'2 relative to control
[3] = tested on: Myzus persicae; assay: Insecticidal activity against Myzus persicae (green peach aphid) in compound treated leaf disk assessed as settling inhibition on leaf disk at 10 ug/cm'2 relative to control
[4] = tested on: Myzus persicae; assay: Insecticidal activity against Myzus persicae (green peach aphid) in compound treated leaf disk assessed as settled on leaf disk at 100 ug/cm'2 relative to control (reference value: 39 +/- 6 to 98 +/- 1%)
[5] = tested on: Myzus persicae; assay: Insecticidal activity against Myzus persicae (green peach aphid) in compound treated leaf disk assessed as settled on leaf disk at 10 ug/cm'2 relative to control (reference value: 39 +/- 6 to 98 +/- 1%)
[6] = tested on: Myzus persicae; assay: Insecticidal activity against Myzus persicae (green peach aphid) in compound treated leaf disk assessed as settled on leaf disk at 50 ug/cm'2 relative to control (reference value: 39 +/- 6 to 98 +/- 1%)
[7] = tested on: Myzus persicae; assay: Insecticidal activity against Myzus persicae (green peach aphid) in compound treated leaf disk assessed as settled on leaf disk

SMILES | inhibition (INH) [1] | inhibition (INH) [2] | inhibition (INH) [3] | inhibition (INH) [4] | inhibition (INH) [5] | inhibition (INH) [6] | ED50 [7]
CC(C)=CCC/C(C)=C/CC/C(C)=C/Cc1c(O)c2ccccc2oc1=O | 62% | 71% | 63% | 26% | 28% | 20% | –
C=C1C(=O)O[C@H]2CC(=C)[C@H]3CC[C@@](C)(O)[C@@H]3C[C@H]12 [INUVISCOLIDE] | 56% | 50% | 38% | 31% | 43% | 39% | –
C=C1C(=O)O[C@@H]2C[C@H](C)C(CCC(C)=O)=CC[C@H]12 [TOMENTOSIN] | 98% | 48% | 19% | 2% | 61% | 35% | 31.9 microg/cm2
